# Reference: patent US20250049970A1, “DLL3 TARGETING PEPTIDES AND CONSTRUCTS THEREOF” (MARIANA ONCOLOGY INC., priority 2023, published 2025)
# *1 amine or outer side, *2 acyl side, *3 side chain or, on linkers, in order; H or OH if unused. Where a SMILES comes first, the peptide text is derived from it. Bridges are numbered along the chain shown (N, C = ends). Roman numbers before positions name the chains, in order. Side-chain parts run from the residue outwards. [ ]: non-standard residue; d: D form. The star is where a group is joined. X11 = O=C(O)CN1CCN(CC(=O)O)CCN(CC(=O)NCCCOCCOCCOCCCN*)CCN(CC(=O)O)CC1; Ala(piperidin-4-yl) = O=C([C@H](CC1CCN([*:3])CC1)N[*:1])[*:2]; DOTA = O=C(O)CN1CCN(CC(=O)O)CCN(CC(=O)*)CCN(CC(=O)O)CC1; X5 = O=C(Cc1ccc(Br)cc1)NCCOCCOCCOCCOCCOCCOCCOCCOCC(=O)*; X2 = O=C(Cc1ccc(I)cc1)NCCOCCOCCOCCOCCOCCOCCOCCOCC(=O)*; Trp(7-OMe) = COc1cccc2c(C[C@H](N)C(=O)O)c[nH]c12; Trp(7-Me) = Cc1cccc2c(C[C@H](N)C(=O)O)c[nH]c12; 2Nal = N[C@@H](Cc1ccc2ccccc2c1)C(=O)O; NMetBuAla = CN[C@@H](CC(C)(C)C)C(=O)O; Chg = N[C@H](C(=O)O)C1CCCCC1; NMeNle = CCCC[C@H](NC)C(=O)O; Suc = O=C(CCC(=O)[*:2])[*:1]; CH2 = C([*:1])[*:2]
# Target: T1, DLL3 (Homo sapiens, UniProt Q9NYJ7)
# T1 sequence (Q9NYJ7 27-618): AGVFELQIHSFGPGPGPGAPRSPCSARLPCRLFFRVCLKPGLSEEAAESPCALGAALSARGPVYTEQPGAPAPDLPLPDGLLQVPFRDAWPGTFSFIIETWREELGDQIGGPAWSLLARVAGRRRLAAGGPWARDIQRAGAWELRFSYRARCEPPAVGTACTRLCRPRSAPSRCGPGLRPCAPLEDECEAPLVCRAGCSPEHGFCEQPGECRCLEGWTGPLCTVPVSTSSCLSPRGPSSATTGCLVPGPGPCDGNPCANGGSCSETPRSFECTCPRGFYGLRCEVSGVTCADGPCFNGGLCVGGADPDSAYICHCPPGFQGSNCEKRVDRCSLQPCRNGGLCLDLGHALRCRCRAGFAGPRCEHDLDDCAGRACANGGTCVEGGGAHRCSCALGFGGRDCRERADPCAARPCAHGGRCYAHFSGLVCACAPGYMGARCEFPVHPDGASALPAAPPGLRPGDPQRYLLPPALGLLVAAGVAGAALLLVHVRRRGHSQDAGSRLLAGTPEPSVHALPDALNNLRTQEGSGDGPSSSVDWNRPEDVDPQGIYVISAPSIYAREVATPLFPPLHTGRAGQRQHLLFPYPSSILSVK
# Assay: SPR KD, biotinylated human DLL3 on streptavidin chip (Table 8)
# Parameters: biotin (biotinylated)
# Conditions: SPR KD, biotinylated human DLL3 on streptavidin sensor chip, 25° C., 1:1 binding model
# Excerpt: Biotinylated target ligand human DLL3 was immobilized on a streptavidin sensor chip. A reference surface was set up for nonspecific binding and refractive index changes. […] Sensorgram curves were fitted with 1:1 binding model, and affinity and kinetic parameters were obtained using Biacore Insight evaluation 4.0. software.
row,Structure (SMILES),Kd
1,"CC(=O)N[C@@H](Cc1c[nH]c2ccccc12)C(=O)N[C@H](C(=O)N[C@H](C(=O)N[C@H]1CSSC[C@@H](C(=O)N[C@@H](Cc2c[nH]c3ccccc23)C(=O)N2CCC[C@H]2C(N)=O)NC(=O)[C@H](CC(=O)O)NC(=O)[C@H](CCCCNC(=O)CNC(=O)[C@H](CO)NC(=O)CNC(=O)[C@H](CO)NC(=O)CNC(=O)[C@H](CO)NC(=O)CN2CCN(CC(=O)O)CCN(CC(=O)O)CCN(CC(=O)O)CC2)NC(=O)[C@H](Cc2ccc3ccccc3c2)NC(=O)[C@H](CC(N)=O)NC(=O)[C@H](CC2CCNCC2)NC1=O)C1CCCCC1)[C@@H](C)O [compound 407, Ac-W-T-(Chg)-C(3)-[3-(4-piperidinyl)-Ala]-N-(2Nal)-Lys(G-S-G-S-G-S-DOTA)-D-C(3)-W-P-CONH2] (I: Ac-WT[Chg]C[Ala(piperidin-4-yl)]N[2Nal]KDCWP-NH2 / II: {DOTA}-SGSGSG; disulfide I:4-I:10; amide I:8-II:C)",< 1 nM
2,CC(=O)N[C@@H](Cc1c[nH]c2ccccc12)C(=O)N[C@H](C(=O)N[C@H](C(=O)N[C@H]1CSSC[C@@H](C(=O)N[C@@H](Cc2c[nH]c3ccccc23)C(=O)N2CCC[C@H]2C(=O)N[C@H](CCCCNC(=O)COCCOCCOCCOCCOCCOCCOCCOCCNC(=O)Cc2ccc(I)cc2)C(N)=O)NC(=O)[C@H](CC(=O)O)NC(=O)[C@H](CCCCNC(=O)CN2CCN(CC(=O)O)CCN(CC(=O)O)CCN(CC(=O)O)CC2)NC(=O)[C@H](Cc2ccc3ccccc3c2)NC(=O)[C@H](CC(N)=O)NC(=O)[C@H](CC2CCNCC2)NC1=O)C1CCCCC1)[C@@H](C)O [compound 420] (Ac-WT[Chg]C[Ala(piperidin-4-yl)]N[2Nal]K(DOTA)DCWP[dK](X2)-NH2; disulfide 4-10),< 1 nM
3,CC(=O)N[C@@H](Cc1c[nH]c2ccccc12)C(=O)N[C@H](C(=O)N[C@H](C(=O)N[C@H]1CSSC[C@@H](C(=O)N[C@@H](Cc2c[nH]c3ccccc23)C(=O)N2CCC[C@H]2C(=O)N[C@H](CCCCNC(=O)COCCOCCOCCOCCOCCOCCOCCOCCNC(=O)Cc2ccc(Br)cc2)C(N)=O)NC(=O)[C@H](CC(=O)O)NC(=O)[C@H](CCCCNC(=O)CN2CCN(CC(=O)O)CCN(CC(=O)O)CCN(CC(=O)O)CC2)NC(=O)[C@H](Cc2ccc3ccccc3c2)NC(=O)[C@H](CC(N)=O)NC(=O)[C@H](CC2CCNCC2)NC1=O)C1CCCCC1)[C@@H](C)O [compound 421] (Ac-WT[Chg]C[Ala(piperidin-4-yl)]N[2Nal]K(DOTA)DCWP[dK](X5)-NH2; disulfide 4-10),< 1 nM

# Same assay, conditions: biotinylated human DLL3 on streptavidin sensor chip, 25° C., 1:1 binding model; read-out: SPR KD
row,Structure (SMILES),Kd
1,"CC(=O)N[C@@H](Cc1c[nH]c2c(C)cccc12)C(=O)N[C@H](C(=O)N[C@H](C(=O)N[C@H]1CSSC[C@@H](C(=O)N[C@@H](Cc2c[nH]c3ccccc23)C(=O)N2CCC[C@H]2C(N)=O)NC(=O)[C@H](CC(=O)O)NC(=O)[C@H](CCCCNC(=O)CN2CCN(CC(=O)O)CCN(CC(=O)O)CCN(CC(=O)O)CC2)NC(=O)[C@H](Cc2ccc3ccccc3c2)NC(=O)[C@H](CC(N)=O)NC(=O)[C@H](CC2CCNCC2)NC1=O)C1CCCCC1)[C@@H](C)O [compound 404, Ac-(7Me-Trp)-T-(Chg)-C(3)-[3-(4-piperidinyl)-Ala]-N-(2Nal)-Lys(DOTA)-D-C(3)-W-P-CONH2] (Ac-[Trp(7-Me)]T[Chg]C[Ala(piperidin-4-yl)]N[2Nal]K(DOTA)DCWP-NH2; disulfide 4-10)",< 1 nM
2,"COc1cccc2c(C[C@H](NC(C)=O)C(=O)N[C@H](C(=O)N[C@H](C(=O)N[C@H]3CSSC[C@@H](C(=O)N[C@@H](Cc4c[nH]c5ccccc45)C(=O)N4CCC[C@H]4C(N)=O)NC(=O)[C@H](CC(=O)O)NC(=O)[C@H](CCCCNC(=O)CN4CCN(CC(=O)O)CCN(CC(=O)O)CCN(CC(=O)O)CC4)NC(=O)[C@H](Cc4ccc5ccccc5c4)NC(=O)[C@H](CC(N)=O)NC(=O)[C@H](CC4CCNCC4)NC3=O)C3CCCCC3)[C@@H](C)O)c[nH]c12 [compound 405, Ac-(7MeO-Trp)-T-(Chg)-C(3)-[3-(4-piperidinyl)-Ala]-N-(2Nal)-Lys(DOTA)-D-C(3)-W-P-CONH2] (Ac-[Trp(7-OMe)]T[Chg]C[Ala(piperidin-4-yl)]N[2Nal]K(DOTA)DCWP-NH2; disulfide 4-10)",< 1 nM
3,"CC(=O)N[C@@H](Cc1c[nH]c2ccccc12)C(=O)N[C@H](C(=O)N[C@H](C(=O)N[C@H]1CSSC[C@@H](C(=O)N[C@@H](Cc2c[nH]c3ccccc23)C(=O)N2CCC[C@H]2C(N)=O)NC(=O)[C@H](CC(=O)O)NC(=O)[C@H](CCCCNC(=O)CNC(=O)CNC(=O)CCC(=O)NCCCOCCOCCOCCCNC(=O)CN2CCN(CC(=O)O)CCN(CC(=O)O)CCN(CC(=O)O)CC2)NC(=O)[C@H](Cc2ccc3ccccc3c2)NC(=O)[C@H](CC(N)=O)NC(=O)[C@H](CC2CCNCC2)NC1=O)C1CCCCC1)[C@@H](C)O [compound 406, Ac-W-T-(Chg)-C(3)-[3-(4-piperidinyl)-Ala]-N-(2Nal)-Lys(G-G-TTDS-DOTA)-D-C(3)-W-P-CONH2] (Ac-WT[Chg]C[Ala(piperidin-4-yl)]N[2Nal]K([Gly-Gly-Suc-X11])DCWP-NH2; disulfide 4-10)",< 1 nM
4,"CCCC[C@@H](C(=O)N[C@H]1CSSC[C@@H](C(=O)N[C@@H](Cc2c[nH]c3ccccc23)C(=O)N2CCC[C@H]2C(N)=O)NC(=O)[C@H](CC(=O)O)NC(=O)[C@H](CCCCNC(=O)CN2CCN(CC(=O)O)CCN(CC(=O)O)CCN(CC(=O)O)CC2)NC(=O)[C@H](Cc2ccc3ccccc3c2)NC(=O)[C@H](CC(N)=O)NC(=O)[C@H](CC2CCNCC2)NC1=O)N(C)C(=O)[C@@H](NC(=O)[C@H](Cc1c[nH]c2c(C)cccc12)NC(C)=O)[C@@H](C)O [compound 408, Ac-(7Me-Trp)-T-(NMe-Nle)-C(3)-[3-(4-piperidinyl)-Ala]-N-(2Nal)-Lys(DOTA)-D-C(3)-W-P-CONH2] (Ac-[Trp(7-Me)]T[NMeNle]C[Ala(piperidin-4-yl)]N[2Nal]K(DOTA)DCWP-NH2; disulfide 4-10)",< 1 nM
5,"CC(=O)N[C@@H](Cc1c[nH]c2ccccc12)C(=O)N[C@H](C(=O)N[C@H](C(=O)N[C@H]1CSCSC[C@@H](C(=O)N[C@@H](Cc2c[nH]c3ccccc23)C(=O)N2CCC[C@H]2C(N)=O)NC(=O)[C@H](C)NC(=O)[C@H](CCCCNC(=O)CN2CCN(CC(=O)O)CCN(CC(=O)O)CCN(CC(=O)O)CC2)NC(=O)[C@H](Cc2ccc3ccccc3c2)NC(=O)[C@H](CC(N)=O)NC(=O)[C@H](CC2CCNCC2)NC1=O)C1CCCCC1)[C@@H](C)O [compound 416, Ac-W-T-(Chg)-C(1)-[3-(4-piperidinyl)-Ala]-N-(2Nal)-Lys(DOTA)-(Ala)-C(1)-W-P-CONH2] (Ac-WT[Chg]C[Ala(piperidin-4-yl)]N[2Nal]K(DOTA)ACWP-NH2; linker 4-10 via CH2)",< 1 nM
6,CC(=O)N[C@@H](Cc1c[nH]c2ccccc12)C(=O)N[C@H](C(=O)N[C@H](C(=O)N[C@H]1CSCSC[C@@H](C(=O)N[C@@H](Cc2c[nH]c3ccccc23)C(=O)N2CCC[C@H]2C(=O)N[C@H](CCCCNC(=O)COCCOCCOCCOCCOCCOCCOCCOCCNC(=O)Cc2ccc(Br)cc2)C(N)=O)NC(=O)[C@H](CC(=O)O)NC(=O)[C@H](CCCCNC(=O)CN2CCN(CC(=O)O)CCN(CC(=O)O)CCN(CC(=O)O)CC2)NC(=O)[C@H](Cc2ccc3ccccc3c2)NC(=O)[C@H](CC(N)=O)NC(=O)[C@H](CC2CCNCC2)NC1=O)C1CCCCC1)[C@@H](C)O [compound 418] (Ac-WT[Chg]C[Ala(piperidin-4-yl)]N[2Nal]K(DOTA)DCWP[dK](X5)-NH2; linker 4-10 via CH2),< 1 nM
7,"CC(=O)N[C@@H](Cc1c[nH]c2ccccc12)C(=O)N[C@H](C(=O)N(C)[C@@H](CC(C)(C)C)C(=O)N[C@H]1CSSC[C@@H](C(=O)N[C@@H](Cc2c[nH]c3ccccc23)C(=O)N2CCC[C@H]2C(N)=O)NC(=O)[C@H](CC(=O)O)NC(=O)[C@H](CCCCNC(=O)CN2CCN(CC(=O)O)CCN(CC(=O)O)CCN(CC(=O)O)CC2)NC(=O)[C@H](Cc2ccc3ccccc3c2)NC(=O)[C@H](CC(N)=O)NC(=O)[C@H](CC2CCNCC2)NC1=O)[C@@H](C)O [compound 419, Ac-W-T-(NMe-tBuAla)-C(3)-[3-(4piperdinyl)-Ala]-N-(2Nal)-Lys(DOTA)-D-C(3)-W-P-CONH2] (Ac-WT[NMetBuAla]C[Ala(piperidin-4-yl)]N[2Nal]K(DOTA)DCWP-NH2; disulfide 4-10)",< 1 nM
8,"CCCC[C@@H](C(=O)N[C@H]1CSSC[C@@H](C(=O)N[C@@H](Cc2c[nH]c3ccccc23)C(=O)N2CCC[C@H]2C(N)=O)NC(=O)[C@H](CC(=O)O)NC(=O)[C@H](CCCCNC(=O)CN2CCN(CC(=O)O)CCN(CC(=O)O)CCN(CC(=O)O)CC2)NC(=O)[C@H](Cc2ccc3ccccc3c2)NC(=O)[C@H](CC(N)=O)NC(=O)[C@H](CC2CCNCC2)NC1=O)N(C)C(=O)[C@@H](NC(=O)[C@H](Cc1c[nH]c2c(OC)cccc12)NC(C)=O)[C@@H](C)O [compound 422, Ac-(7MeO-Trp)-T-(NMe-Nle)-C(3)-[3-(4piperdinyl)-Ala]-N-(2Nal)-Lys(DOTA)-D-C(3)-W-P-CONH2] (Ac-[Trp(7-OMe)]T[NMeNle]C[Ala(piperidin-4-yl)]N[2Nal]K(DOTA)DCWP-NH2; disulfide 4-10)",< 1 nM
